# Values joined by “and” are separate entries in the source; they are usually repeats but may differ in a detail not shown here. Equal values may be shown once. Where a name gives a salt, the structure may show the parent alone.
# Legend:
# [1] = system: urinary incontinence of the bitch; details: 1.5 mg/kg BW p.o., given every 8 hours; cited from earlier work
# [2] = system: excessive growth of the undercoat (baby coat) due to spaying; assay: Excessive growth of the undercoat due to spaying in cocker spaniel bitches; type: in vivo, dog; details: 5 mg slow release s.c. implant
# Method: Two cocker spaniel bitches belonging to the same owner were showing excessive growth of the undercoat due to spaying. […] Both dogs were first clinically examined and thereafter a GnRH analogue (Deslorelin) in a dosage of 5 mg, in slow release form, was subcutaneously implanted between the shoulder blades.
# stress incontinence = assay: Menopausal person with stress incontinence, 24 hour pad test; type: in vivo, human; details: single dose of 3.75 mg, one person
# Method: A second menopausal person, suffering from stress incontinence for at least 6 years, was treated with a single dose of 3.75 mg of leuprolide acetate. 24 hour pad tests conducted prior to treatment with the drug indicated they lost between 10 and 130 ml of urine on a daily basis due to their incontinence.
# urinary incontinence = assay: Double-blind, placebo-control study in client owned dogs suffering from urinary incontinence; type: in vivo, dog
# Method: In a second ongoing study, 16 client owned dogs suffering from urinary incontinence were enrolled in a double-blind, placebo-control study. In the initial phase of the study, dogs were randomly assigned to treatment with a long-acting GnRH analogue (leuprolide acetate) or placebo (dog owners and the investigators were blinded to treatment) along with a short course of therapy with phenylpropanolamine. 5 weeks after treatment with drug or placebo, dogs were evaluated and, if not fully continent, treated with a long-acting GnRH analogue (leuprolide acetate) in an open label phase of the study. To date only 1 of 10 dogs treated with placebo became continent vs. […] treated with drug during the blinded portion of the study. Overall, the results generated thus far indicate […] dogs treated with the long-acting GnRH analogue became continent and […] improved after discontinuation of the short acting phenylpropanolamine. Only 1 dog of 15 treated with the GnRH analogue was considered not to have improved following treatment with the drug.
# [3] = system: urinary incontinence after spaying; assay: GnRH analogue slow release implant in bitches with urinary incontinence after spaying; type: in vivo, dog; details: slow release s.c. implant
# Method: Additionally, for a limited period the dogs were treated with phenylpropanolamine in a dosage of 1.5 mg/kg BW tid orally.
# After discontinuation of the shortacting phenylpropanolamine 8 bitches remained continent. Their continence was therefore achieved solely by the treatment with the composition as described in the present invention. Seven out of fifteen dogs seemed to be much happier and in none of the dogs did the general condition deteriorate. […] The respective results are shown in more detail in table 1.
# [4] = system: urge incontinence and hotflushes; assay: Perimenopausal person with urge incontinence and hot flushes; type: in vivo, human; details: 3.75 mg; one perimenopausal person
# [5] = 11,25 mg, without PPA, one dog per line, listed as Leuprorelin acetate
# [6] = 6,3 mg, without PPA, one dog per line
# [7] = 6 mg, without PPA, one dog per line
# [8] = 12 mg, with PPA, one dog per line
# [9] = 12 mg, without PPA, one dog per line
molecule,measurement,setting,value
CN[C@@H](C)[C@H](O)c1ccccc1 [ephedrinhydrochloride],Continence achieved,[1],74%
CCNC(=O)[C@@H]1CCCN1C(=O)[C@H](CCCN=C(N)N)NC(=O)[C@H](CC(C)C)NC(=O)[C@@H](Cc1c[nH]c2ccccc12)NC(=O)[C@H](Cc1ccc(O)cc1)NC(=O)[C@H](CO)NC(=O)[C@H](Cc1c[nH]c2ccccc12)NC(=O)[C@H](Cc1cnc[nH]1)NC(=O)[C@@H]1CCC(=O)N1 [Deslorelin],Coat quality,"[2]; 5 weeks after the injection, both of two dogs",obvious amelioration of the coat quality
same,Signs of baby coat,"[2]; 21 weeks after injection, two dogs",no signes of “baby coat” were apparent anymore
CC(N)C(O)c1ccccc1 (centres unmarked) [phenylpropanolamine],Continence achieved,[1],74%
"CCNC(=O)[C@@H]1CCCN1C(=O)[C@H](CCCNC(=N)N)NC(=O)[C@H](CC(C)C)NC(=O)[C@@H](CC(C)C)NC(=O)[C@H](Cc1ccc(O)cc1)NC(=O)[C@H](CO)NC(=O)[C@H](Cc1c[nH]c2ccccc12)NC(=O)[C@H](Cc1c[nH]cn1)NC(=O)[C@@H]1CCC(=O)N1 [Leuprorelinacetate, leuprolide acetate]","Daily urine loss, pad test","stress incontinence; 2 weeks after treatment, before treatment 10 to 130 ml daily",1 mL
same,Patient's judgement of the effects of the therapy,stress incontinence,very satisfied
same,Dogs that became continent during the blinded portion of the study,"urinary incontinence; long-acting, with short course of phenylpropanolamine, evaluated 5 weeks after treatment, placebo 1 of 10",3 to 8 dogs
same,Dogs considered not to have improved following treatment,urinary incontinence; of 15 treated,1 dog
same,Dogs that became continent after discontinuation of phenylpropanolamine (overall),"urinary incontinence; of 15 treated, blinded and open label phases, ongoing study",6 dogs
same,Remaining dogs that improved after discontinuation of phenylpropanolamine,"urinary incontinence; of 15 treated, ongoing study",9 dogs
same,Duration of effect after treatment,"[3]; 11,25 mg, with PPA, one dog",>64 days
same,Effect on incontinence,"[3]; 11,25 mg, with PPA, one dog",100%
same,Duration of effect after treatment,"[3]; 11,25 mg, without PPA, one dog per line",0 days
same,Duration of effect after treatment,[3]; [5],>14 days
same,Effect on incontinence,[3]; [5],100%
Buserelin acetate [Buserelinacetate],Duration of effect after treatment,[3]; [6],44 days and 83 days
same,Effect on incontinence,[3]; [6],100%
Deslorelin acetate [Deslorelinacetate],Side effects,"[3]; 6 mg, one dog per line",More playfull
same,Duration of effect after treatment,"[3]; 6 mg, with PPA, one dog",>336 days
same,Effect on incontinence,"[3]; 6 mg, with PPA, one dog per line",100%
same,Duration of effect after treatment,[3]; [7],>47 days and >344 days and >340 days
same,Effect on incontinence,[3]; [7],100%
same,Duration of effect after treatment,[3]; [8],135 days and >318 days and >225 days
same,Effect on incontinence,[3]; [8],80% and 100% (2×)
same,Duration of effect after treatment,[3]; [9],64 days and >64 days and >209 days
same,Effect on incontinence,[3]; [9],100%
Triptorelin acetate [Triptorelinacetate],Period of improvement of both symptoms,[4],about 4 weeks
same,"Urge incontinence and hotflushes, patient report",[4],improved considerably
same,Duration of effect after treatment,"[3]; 3,75 mg, footnote: dose too low, one dog",0

# — patent publication US7498303B2, “GNRH analogues for treatment of urinary incontinence” (priority 2000, dated 2009)
